Experimental data published in ChEMBL document CHEMBL5247651, “Oxadiazolopyridine Derivatives as Efficacious Mitochondrial Uncouplers in the Prevention of Diet-Induced Obesity” (J Med Chem, 2023).
In brackets after ≈: the same amount, converted by molar mass. Activity calls are given as the source filed them. The rule behind the calls is not given here.

Legend:
Mus musculus [1] = assay: Anti-obesity activity in fasted C57BL/6j mouse assessed as decrease in serum glucose level at 130 mg/kg per day, po administered measured after 2 weeks; type: functional, organism-based
[2] = Induction of mitochondrial respiration in rat L6 cells assessed as fold increase in basal respiration at 25 uM followed by BAM15 addition; type: functional
Mus musculus [3] = assay: Anti-obesity activity in high-sugar western diet induced obesity C57BL/6j mouse model assessed as decrease in muscle weight at 130 mg/kg per day, po administered via gavage daily measured after 3 weeks; type: functional, organism-based
Mus musculus [4] = assay: Anti-obesity activity in high-sugar western diet induced obesity C57BL/6j mouse model assessed as decrease in fat-free mass body composition at 130 mg/kg per day, po administered measured after 2 weeks by EchoMRI analysis (reference value: 77%); type: functional; set-up: scale not given: the % may be the effect or the level left
[5] = Cmax in Swiss albino mouse at 10 mg/kg, po administered via gavage measured upto 24 hrs by LC/MS-MS analysis; type: ADME, organism-based; set-up: time < 24 hrs, dose 10 mg/kg, route po; details: in vivo
[6] = Apparent permeability across apical to basolateral side in human Caco-2 cells; type: ADME, cell-based
Mus musculus [7] = assay: Anti-obesity activity in C57BL/6j mouse assessed as decrease in serum glucose level at 130 mg/kg per day, po administered via gavage daily measured after 3 weeks; type: functional, organism-based
L6 [8] = assay: Induction of mitochondrial respiration in rat L6 cells assessed as fold increase in basal respiration at 25 uM in presence of antimycin and rotenone; type: functional, cell-based
Mus musculus [9] = assay: Anti-obesity activity in high-sugar western diet induced obesity C57BL/6j mouse model assessed as effect on free fatty acid level at 130 mg/kg per day, po administered via gavage daily measured after 3 weeks by fluorometric analysis; type: functional, organism-based
[10] = Induction of mitochondrial respiration in rat L6 cells assessed as fold increase in basal respiration upto 200 uM; type: functional
Mus musculus [11] = assay: Anti-obesity activity in high-fat diet induced obesity C57BL/6 mouse model assessed as increase in carbon dioxide production at 130 mg/kg, po measured upto 4 hrs by indirect calorimetric analysis; type: functional, organism-based
[12] = Half life in Swiss albino mouse at 10 mg/kg, po administered via gavage measured upto 24 hrs by LC/MS-MS analysis; type: ADME, organism-based; details: in vivo
Mus musculus [13] = assay: Anti-obesity activity in high-sugar western diet induced obesity C57BL/6j mouse model assessed as reversal of body weight at 130 mg/kg per day, po administered via gavage daily measured after 3 weeks; type: functional, organism-based
Mus musculus [14] = assay: Anti-obesity activity in C57BL/6j mouse assessed as effect on plasma free fatty acid level at 130 mg/kg per day, po administered via gavage daily measured after 3 weeks; type: functional, organism-based
Mus musculus [15] = assay: Anti-obesity activity in high-sugar western diet induced obesity C57BL/6j mouse model assessed as decrease in fat-free lean mass at 130 mg/kg per day, po administered measured after 2 weeks by EchoMRI analysis; type: functional; set-up: scale not given: the % may be the effect or the level left
Mus musculus [16] = assay: Anti-obesity activity in high-sugar western diet induced obesity C57BL/6j mouse model assessed as decrease in retroperitoneal fat pad weight at 130 mg/kg per day, po administered via gavage daily measured after 3 weeks; type: functional, organism-based
Mus musculus [17] = assay: Anti-obesity activity in high-sugar western diet induced obesity C57BL/6j mouse model assessed as reversal of fat mass gain at 130 mg/kg per day, po administered via gavage daily measured after 3 weeks; type: functional, organism-based
[18] = Cmax in C57BL/6 mouse at 1 mg/kg, iv measured upto 24 hrs by LC/MS-MS analysis; type: ADME, organism-based; set-up: time < 24 hrs, dose 1 mg/kg, route iv; details: in vivo
Mus musculus [19] = assay: Anti-obesity activity in high-sugar western diet induced obesity C57BL/6j mouse model assessed as decrease in gonadal white adipose tissue weight at 130 mg/kg per day, po administered via gavage daily measured after 3 weeks; type: functional, organism-based
Mus musculus [20] = assay: Anti-obesity activity in high-sugar western diet induced obesity C57BL/6j mouse model assessed as decrease in body weight at 130 mg/kg per day, po administered for 14 days; type: functional, organism-based; details: time 14.0 day
[21] = Observed apparent volume of distribution in C57BL/6 mouse at 1 mg/kg, iv measured upto 24 hrs by LC/MS-MS analysis; type: ADME, organism-based; details: in vivo, read-out: Vz
Mus musculus [22] = assay: Anti-obesity activity in C57BL/6j mouse assessed as increase in glucose level at 130 mg/kg per day, po administered via gavage daily measured after 3 weeks by glucose tolerance test; type: functional, organism-based
[23] = Induction of mitochondrial uncoupling activity in rat L6 cells assessed as increase in oxygen consumption rate measured after 90 mins by agilent Seahorse XF analyzer; type: functional, cell-based
[24] = Drug distribution in fasted C57BL/6j mouse brown adipose tissue at 130 mg/kg, po by LC-MS/MS analysis; type: ADME, organism-based; details: in vivo
[25] = Observed apparent volume of distribution in C57BL/6 mouse at 10 mg/kg, po measured upto 24 hrs by LC/MS-MS analysis; type: ADME, organism-based; details: in vivo
Mus musculus [26] = assay: Anti-obesity activity in C57BL/6j mouse assessed as decrease in serum insulin level at 130 mg/kg per day, po administered via gavage daily measured after 3 weeks by ELISA assay; type: functional, organism-based
[27] = Solubility of compound at pH 7.4; type: physicochemical; details: buffer
Mus musculus [28] = assay: Anti-obesity activity in high-fat diet induced obesity C57BL/6 mouse model assessed as increase in locomotory activity at 130 mg/kg, po measured upto 4 hrs by indirect calorimetric analysis; type: functional, organism-based
[29] = Observed volume of distribution at steady state in C57BL/6 mouse at 1 mg/kg, iv measured upto 24 hrs by LC/MS-MS analysis; type: ADME, organism-based; details: in vivo, read-out: Vdss
Mus musculus [30] = assay: Anti-obesity activity in high-sugar western diet induced obesity C57BL/6j mouse model assessed as effect on fecal triglyceride level at 130 mg/kg per day, po administered via gavage daily measured after 3 weeks by colorimetric analysis; type: functional, organism-based
L6 [31] = assay: Induction of mitochondrial respiration in rat L6 cells assessed as fold increase in basal respiration at 25 uM in presence of oligomycin; type: functional, cell-based
Mus musculus [32] = assay: Anti-obesity activity in high-fat diet induced obesity C57BL/6 mouse model assessed as increase in carbohydrate oxidation at 130 mg/kg, po measured upto 4 hrs by indirect calorimetric analysis; type: functional, organism-based
[33] = Drug distribution in fasted C57BL/6j mouse brown adipose tissue at 10 mg/kg, po measured after 2 hrs by LC-MS/MS analysis; type: ADME, organism-based; details: in vivo
[34] = Drug distribution in fasted C57BL/6j mouse white adipose tissue at 10 mg/kg, po measured after 2 hrs by LC-MS/MS analysis; type: ADME, organism-based; details: in vivo
Mus musculus [35] = assay: Anti-obesity activity in high-sugar western diet induced obesity C57BL/6j mouse model assessed as decrease in subcutaneous fat pad weight at 130 mg/kg per day, po administered via gavage daily measured after 3 weeks; type: functional, organism-based
[36] = Drug distribution in fasted C57BL/6j mouse liver at 130 mg/kg, po by LC-MS/MS analysis; type: ADME, organism-based; details: in vivo
Mus musculus [37] = assay: Anti-obesity activity in high-sugar western diet induced obesity C57BL/6j mouse model assessed as food consumption at 130 mg/kg per day, po administered for 14 days ( Rvb = 2.5 +/- 0.5 g/day per mouse); type: functional; details: time 14 day
[38] = Half life in C57BL/6 mouse at 1 mg/kg, iv measured upto 24 hrs by LC/MS-MS analysis; type: ADME, organism-based; details: in vivo
[39] = Apparent permeability across basolateral to apical side in human Caco-2 cells; type: ADME, cell-based

Cmax [5]: 57 µM
Papp A→B [6]: 12.4 ×10⁻⁶ cm/s
t1/2 [12]: 4.4 h
Cmax [18]: 16 µM
Vd [21]: 0.07 L/kg
EC50 [23]: 17.1 µM
pEC50 [23]: 4.8
Drug uptake [24]: Active
Vz [25]: 0.74 L/kg
solubility [27]: 18.6 µM (≈ 5.92 µg/mL)
Vd [29]: 0.06 L/kg
Drug uptake [33]: Active
Drug uptake [34]: Active
Drug uptake [36]: Active
half-life [38]: 1.15 h
Papp B→A [39]: 1.6 ×10⁻⁶ cm/s
SMILES: Oc1nc2nonc2cc1Nc1c(F)c(F)c(F)c(F)c1F
Activity (Mus musculus [1]): Active
fold change (FC) [2]: 3
Activity (Mus musculus [3]): inactive
Activity (Mus musculus [4]): 84%
Activity (Mus musculus [7]): Active
Activity (L6 [8]): inactive
Activity (Mus musculus [9]): inactive
fold change (FC) [10]: 2
Activity (Mus musculus [11]): Active
Activity (Mus musculus [13]): Active
Activity (Mus musculus [14]): inactive
Activity (Mus musculus [15]): 4%
Activity (Mus musculus [16]): inactive
Activity (Mus musculus [17]): Active
Activity (Mus musculus [19]): Active
Activity (Mus musculus [20]): Active
Activity (Mus musculus [22]): inactive
Activity (Mus musculus [26]): Active
Activity (Mus musculus [28]): inactive
Activity (Mus musculus [30]): inactive
Activity (L6 [31]): Active
Activity (Mus musculus [32]): Active
Activity (Mus musculus [35]): inactive
Activity (Mus musculus [37]): 2.5 g/day
